Assay results reported in PubChem BioAssay (NCI).
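These data come from cells grown in 96-well plates and exposed to compound for 48 hours at five concentrations. Definition used: TGI = concentration required for complete inhibition of growth.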

Tests used:
Assay in all cases: NCI-60 cell line screen, 48 h
HL-60(TB) leukemia = tested on: HL-60(TB) leukemia
ACHN renal = tested on: ACHN renal
K-562 leukemia = tested on: K-562 leukemia
UACC-62 melanoma = tested on: UACC-62 melanoma
HOP-92 NSCLC = tested on: HOP-92 NSCLC
OVCAR-3 ovarian = tested on: OVCAR-3 ovarian
RPMI-8226 leukemia = tested on: RPMI-8226 leukemia
SW-620 colon = tested on: SW-620 colon
CAKI-1 renal = tested on: CAKI-1 renal
OVCAR-5 ovarian = tested on: OVCAR-5 ovarian
T-47D breast = tested on: T-47D breast
MOLT-4 leukemia = tested on: MOLT-4 leukemia
PC-3 prostate = tested on: PC-3 prostate
TK-10 renal = tested on: TK-10 renal
NCI-H23 lung = tested on: NCI-H23 lung
MDA-MB-231 breast = tested on: MDA-MB-231 breast
HCT-15 colon = tested on: HCT-15 colon
LOX IMVI melanoma = tested on: LOX IMVI melanoma
SK-OV-3 ovarian = tested on: SK-OV-3 ovarian
MALME-3M melanoma = tested on: MALME-3M melanoma
EKVX NSCLC = tested on: EKVX NSCLC
NCI-H522 lung = tested on: NCI-H522 lung
SF-539 CNS = tested on: SF-539 CNS
SK-MEL-5 melanoma = tested on: SK-MEL-5 melanoma
UO-31 renal = tested on: UO-31 renal
M14 melanoma = tested on: M14 melanoma
A549 NSCLC = tested on: A549 NSCLC
HOP-62 NSCLC = tested on: HOP-62 NSCLC
HCC-2998 colon = tested on: HCC-2998 colon
COLO 205 colon = tested on: COLO 205 colon
HT29 colon = tested on: HT29 colon
786-0 renal = tested on: 786-0 renal
IGROV1 ovarian = tested on: IGROV1 ovarian
OVCAR-8 ovarian = tested on: OVCAR-8 ovarian
KM12 colon = tested on: KM12 colon
SNB-19 CNS = tested on: SNB-19 CNS
A498 renal = tested on: A498 renal
NCI/ADR-RES ovarian = tested on: NCI/ADR-RES ovarian
SN12C renal = tested on: SN12C renal
NCI-H226 lung = tested on: NCI-H226 lung
SK-MEL-28 melanoma = tested on: SK-MEL-28 melanoma
U251 CNS = tested on: U251 CNS
HCT-116 colon = tested on: HCT-116 colon
RXF 393 renal = tested on: RXF 393 renal
BT-549 breast = tested on: BT-549 breast
MDA-N = tested on: MDA-N
MCF7 breast = tested on: MCF7 breast
HS 578T breast = tested on: HS 578T breast
MDA-MB-435 = tested on: MDA-MB-435
SF-295 CNS = tested on: SF-295 CNS
NCI-H460 lung = tested on: NCI-H460 lung
OVCAR-4 ovarian = tested on: OVCAR-4 ovarian
SF-268 CNS = tested on: SF-268 CNS
DU-145 prostate = tested on: DU-145 prostate
UACC-257 melanoma = tested on: UACC-257 melanoma
SR leukemia = tested on: SR leukemia
SNB-75 CNS = tested on: SNB-75 CNS
CCRF-CEM leukemia = tested on: CCRF-CEM leukemia
SK-MEL-2 melanoma = tested on: SK-MEL-2 melanoma

Measured: TGI

CNC(=O)CCC(NC(C)=O)C(=O)NC(Cc1ccc(NC(=O)CCCCC(C)=O)cc1)C(=O)NC(CCC(=O)NC)C(=O)NC (stereo unspecified)
not listed: UACC-257 melanoma | SR leukemia | SNB-75 CNS | CCRF-CEM leukemia | SK-MEL-2 melanoma
> 100 µM: all other assays above

COP(=O)(OC)C(N)CCSC (stereo unspecified)
not listed: T-47D breast | MDA-MB-231 breast | SF-539 CNS | HCC-2998 colon | A498 renal | RXF 393 renal | DU-145 prostate
> 100 µM: all other assays above
